Measured values reported in BindingDB's records for PubMed 7518514 (Abbott Laboratories, 1994).

Columns and labels:
[1] = target: Sodium-dependent dopamine transporter (Homo sapiens, UniProt Q01959)
[2] = target: Beta-2 adrenergic receptor (Mus musculus, UniProt P18762)
[3] = target: Adenosine receptor A2a (Homo sapiens, UniProt P29274)
[4] = target: Glutamate receptor ionotropic, NMDA 1 (Rattus norvegicus, UniProt P35439)
[5] = target: Chloride channel protein 1 (Homo sapiens, UniProt P35523)
[6] = target: VIP peptides (Homo sapiens, UniProt P01282)
[7] = target: Solute carrier family 22 member 1 (Rattus norvegicus, UniProt Q63089)
[8] = target: Substance-K receptor (Bos taurus, UniProt P05363)
[9] = target: Sodium-dependent noradrenaline transporter (Homo sapiens, UniProt P23975)
Sequence of Sodium-dependent noradrenaline transporter (P23975 whole entry): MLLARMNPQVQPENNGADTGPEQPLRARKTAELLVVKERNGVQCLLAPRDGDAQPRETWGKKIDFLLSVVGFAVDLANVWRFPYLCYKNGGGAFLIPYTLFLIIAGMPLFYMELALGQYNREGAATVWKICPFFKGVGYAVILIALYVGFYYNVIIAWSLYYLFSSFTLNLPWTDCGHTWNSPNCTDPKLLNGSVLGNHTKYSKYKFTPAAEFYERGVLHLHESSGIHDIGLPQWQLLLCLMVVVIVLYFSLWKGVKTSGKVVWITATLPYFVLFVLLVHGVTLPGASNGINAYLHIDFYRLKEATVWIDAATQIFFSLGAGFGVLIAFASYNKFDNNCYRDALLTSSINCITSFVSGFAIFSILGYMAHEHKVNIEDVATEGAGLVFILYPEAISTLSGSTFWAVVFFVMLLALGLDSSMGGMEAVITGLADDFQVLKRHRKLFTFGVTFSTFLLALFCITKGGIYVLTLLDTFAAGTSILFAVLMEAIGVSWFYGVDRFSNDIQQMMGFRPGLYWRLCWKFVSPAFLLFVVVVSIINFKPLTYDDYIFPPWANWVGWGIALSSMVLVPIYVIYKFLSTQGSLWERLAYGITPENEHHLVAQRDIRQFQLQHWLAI

[10] = target: GLRA1 protein (Homo sapiens, UniProt Q14C71)
[11] = target: D(1A) dopamine receptor (Homo sapiens, UniProt P21728)
[12] = target: Voltage-dependent N-type calcium channel subunit alpha-1B (Rattus norvegicus, UniProt Q02294)
[13] = target: Muscarinic acetylcholine receptor M1 (Mus musculus, UniProt P12657)
Sequence of Muscarinic acetylcholine receptor M1 (P12657 whole entry): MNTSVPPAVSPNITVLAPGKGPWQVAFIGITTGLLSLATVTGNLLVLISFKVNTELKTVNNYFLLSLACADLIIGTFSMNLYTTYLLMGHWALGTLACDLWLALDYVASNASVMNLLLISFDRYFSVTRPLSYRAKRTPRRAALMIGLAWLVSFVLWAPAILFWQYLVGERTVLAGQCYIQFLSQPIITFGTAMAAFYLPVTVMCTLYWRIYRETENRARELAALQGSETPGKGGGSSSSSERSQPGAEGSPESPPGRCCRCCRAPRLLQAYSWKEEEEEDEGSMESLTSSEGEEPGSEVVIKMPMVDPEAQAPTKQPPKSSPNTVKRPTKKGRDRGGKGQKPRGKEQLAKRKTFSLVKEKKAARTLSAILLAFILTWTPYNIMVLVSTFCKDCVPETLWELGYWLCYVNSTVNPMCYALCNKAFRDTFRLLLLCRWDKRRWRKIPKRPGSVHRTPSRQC

[14] = target: Glutamate receptor ionotropic, kainate 2 (Homo sapiens, UniProt Q13002)
[15] = target: Glutamate receptor 3 (Homo sapiens, UniProt P42263)
[16] = target: Apamin (Apis mellifera, UniProt P01500)
[17] = target: Voltage-dependent T-type calcium channel subunit alpha-1H (Homo sapiens, UniProt O95180)
[18] = target: D(2) dopamine receptor (Homo sapiens, UniProt P14416)
[19] = target: Inositol-tetrakisphosphate 1-kinase (Homo sapiens, UniProt Q13572)
[20] = target: 5-hydroxytryptamine receptor 1A/1B/1D/2C (Homo sapiens, UniProt P08908+P28221+P28222+P28335)
[21] = target: Histamine H1 receptor (Homo sapiens, UniProt P35367)
[22] = target: Adenylate cyclase type 9 (Homo sapiens, UniProt O60503)
[23] = target: Adenosine receptor A1 (Homo sapiens, UniProt P30542)
[24] = target: Type-2 angiotensin II receptor (Homo sapiens, UniProt P50052)
Sequence of Type-2 angiotensin II receptor (P50052 whole entry): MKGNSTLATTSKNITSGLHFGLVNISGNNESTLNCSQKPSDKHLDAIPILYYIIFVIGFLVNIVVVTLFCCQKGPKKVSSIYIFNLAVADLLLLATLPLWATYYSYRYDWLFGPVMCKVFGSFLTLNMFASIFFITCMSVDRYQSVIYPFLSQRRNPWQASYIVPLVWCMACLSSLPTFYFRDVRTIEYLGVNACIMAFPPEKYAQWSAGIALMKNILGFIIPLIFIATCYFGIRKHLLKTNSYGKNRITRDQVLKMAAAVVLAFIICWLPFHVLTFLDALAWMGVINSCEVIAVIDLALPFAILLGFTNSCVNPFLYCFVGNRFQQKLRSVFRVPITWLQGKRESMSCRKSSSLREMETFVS

[25] = target: Gamma-aminobutyric acid receptor subunit alpha-1 (Homo sapiens, UniProt P14867)
[26] = target: Protein kinase C (Drosophila melanogaster, UniProt P13678)
[27] = target: Gamma-aminobutyric acid type B receptor subunit 1 (Homo sapiens, UniProt Q9UBS5)
Sequence of Gamma-aminobutyric acid type B receptor subunit 1 (Q9UBS5 whole entry): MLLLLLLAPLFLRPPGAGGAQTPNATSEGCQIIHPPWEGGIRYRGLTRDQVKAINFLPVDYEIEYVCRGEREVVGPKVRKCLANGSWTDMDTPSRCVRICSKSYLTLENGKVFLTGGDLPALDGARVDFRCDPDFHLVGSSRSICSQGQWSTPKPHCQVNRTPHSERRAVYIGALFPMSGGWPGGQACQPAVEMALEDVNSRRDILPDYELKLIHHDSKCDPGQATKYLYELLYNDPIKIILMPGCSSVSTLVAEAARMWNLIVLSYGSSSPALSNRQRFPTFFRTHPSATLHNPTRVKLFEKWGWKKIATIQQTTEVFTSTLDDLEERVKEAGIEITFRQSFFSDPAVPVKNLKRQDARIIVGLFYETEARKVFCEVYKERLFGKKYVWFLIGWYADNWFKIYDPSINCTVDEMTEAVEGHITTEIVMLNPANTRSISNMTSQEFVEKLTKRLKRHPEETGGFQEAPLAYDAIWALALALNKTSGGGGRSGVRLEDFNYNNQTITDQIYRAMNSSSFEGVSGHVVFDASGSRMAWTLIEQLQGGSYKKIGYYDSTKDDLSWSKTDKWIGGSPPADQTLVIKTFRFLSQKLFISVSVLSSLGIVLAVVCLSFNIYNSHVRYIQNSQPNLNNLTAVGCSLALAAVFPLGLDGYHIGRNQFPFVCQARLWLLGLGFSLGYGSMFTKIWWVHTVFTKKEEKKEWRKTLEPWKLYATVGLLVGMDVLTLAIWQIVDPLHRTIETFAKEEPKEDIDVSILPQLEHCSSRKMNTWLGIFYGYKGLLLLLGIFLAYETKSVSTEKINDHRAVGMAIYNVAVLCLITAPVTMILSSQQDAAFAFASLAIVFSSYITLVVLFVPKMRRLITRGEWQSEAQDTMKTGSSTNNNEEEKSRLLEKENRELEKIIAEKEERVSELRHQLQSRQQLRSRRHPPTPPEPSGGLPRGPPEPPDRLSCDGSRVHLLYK

[28] = target: Outer capsid protein sigma-1 (Reovirus type 3 (strain Dearing), UniProt P03528)
Sequence of Outer capsid protein sigma-1 (P03528 whole entry): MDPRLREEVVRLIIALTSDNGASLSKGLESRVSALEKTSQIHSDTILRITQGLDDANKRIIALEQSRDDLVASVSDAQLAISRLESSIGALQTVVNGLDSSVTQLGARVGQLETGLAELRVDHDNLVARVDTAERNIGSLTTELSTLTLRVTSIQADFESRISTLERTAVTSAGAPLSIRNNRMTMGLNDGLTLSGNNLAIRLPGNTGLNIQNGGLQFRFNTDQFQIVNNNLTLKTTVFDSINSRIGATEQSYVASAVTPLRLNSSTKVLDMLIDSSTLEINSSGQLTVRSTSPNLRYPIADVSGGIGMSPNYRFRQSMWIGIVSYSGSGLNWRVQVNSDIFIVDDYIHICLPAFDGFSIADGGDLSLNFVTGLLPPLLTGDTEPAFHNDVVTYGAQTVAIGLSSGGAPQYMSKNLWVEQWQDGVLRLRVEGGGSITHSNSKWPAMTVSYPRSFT

[29] = target: Adrenergic alpha2 receptor (Mesocricetus auratus, UniProt Q60533)
Sequence of Adrenergic alpha2 receptor (Q60533 whole entry): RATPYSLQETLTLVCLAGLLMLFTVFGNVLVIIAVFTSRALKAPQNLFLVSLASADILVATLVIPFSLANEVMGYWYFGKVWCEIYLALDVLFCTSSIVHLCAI

[30] = target: 5-hydroxytryptamine receptor 2A (Sus scrofa, UniProt P50129)
[31] = target: 5-hydroxytryptamine receptor 3A (Homo sapiens, UniProt P46098)
Sequence of 5-hydroxytryptamine receptor 3A (P46098 whole entry): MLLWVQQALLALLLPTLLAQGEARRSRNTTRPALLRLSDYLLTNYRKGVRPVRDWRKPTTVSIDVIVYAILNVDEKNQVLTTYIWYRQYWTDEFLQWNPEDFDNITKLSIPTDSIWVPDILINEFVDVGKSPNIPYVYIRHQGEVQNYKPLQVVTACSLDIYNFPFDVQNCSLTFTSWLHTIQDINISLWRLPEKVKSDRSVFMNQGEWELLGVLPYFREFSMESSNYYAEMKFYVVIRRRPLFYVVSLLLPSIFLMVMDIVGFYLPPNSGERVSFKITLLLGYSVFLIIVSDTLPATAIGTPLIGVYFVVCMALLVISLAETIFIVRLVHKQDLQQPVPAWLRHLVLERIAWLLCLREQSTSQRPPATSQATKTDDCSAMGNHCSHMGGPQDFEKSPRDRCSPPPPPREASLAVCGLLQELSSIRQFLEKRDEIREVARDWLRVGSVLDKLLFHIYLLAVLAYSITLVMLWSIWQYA

[32] = target: Substance-P receptor (Homo sapiens, UniProt P25103)
[33] = target: Beta-nerve growth factor (Homo sapiens, UniProt P01138)
Sequence of Beta-nerve growth factor (P01138 122-241 limits assumed): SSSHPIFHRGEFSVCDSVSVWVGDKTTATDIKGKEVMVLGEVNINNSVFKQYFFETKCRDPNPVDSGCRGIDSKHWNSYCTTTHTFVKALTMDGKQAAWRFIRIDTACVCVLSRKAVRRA

Measured: Ki

Sequence of Adenosine receptor A2a (P29274 whole entry): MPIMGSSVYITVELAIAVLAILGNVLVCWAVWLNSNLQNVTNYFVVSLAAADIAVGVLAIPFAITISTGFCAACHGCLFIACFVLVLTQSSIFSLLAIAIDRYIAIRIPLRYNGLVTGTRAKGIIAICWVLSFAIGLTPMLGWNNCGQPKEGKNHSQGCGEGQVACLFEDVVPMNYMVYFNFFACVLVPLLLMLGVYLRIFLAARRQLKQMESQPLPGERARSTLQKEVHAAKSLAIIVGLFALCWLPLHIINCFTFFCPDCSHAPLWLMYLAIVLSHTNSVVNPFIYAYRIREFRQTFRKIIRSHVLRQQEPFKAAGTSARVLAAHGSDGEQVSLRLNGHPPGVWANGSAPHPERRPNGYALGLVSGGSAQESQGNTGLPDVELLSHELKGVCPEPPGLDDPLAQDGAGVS
Sequence of Chloride channel protein 1 (P35523 whole entry): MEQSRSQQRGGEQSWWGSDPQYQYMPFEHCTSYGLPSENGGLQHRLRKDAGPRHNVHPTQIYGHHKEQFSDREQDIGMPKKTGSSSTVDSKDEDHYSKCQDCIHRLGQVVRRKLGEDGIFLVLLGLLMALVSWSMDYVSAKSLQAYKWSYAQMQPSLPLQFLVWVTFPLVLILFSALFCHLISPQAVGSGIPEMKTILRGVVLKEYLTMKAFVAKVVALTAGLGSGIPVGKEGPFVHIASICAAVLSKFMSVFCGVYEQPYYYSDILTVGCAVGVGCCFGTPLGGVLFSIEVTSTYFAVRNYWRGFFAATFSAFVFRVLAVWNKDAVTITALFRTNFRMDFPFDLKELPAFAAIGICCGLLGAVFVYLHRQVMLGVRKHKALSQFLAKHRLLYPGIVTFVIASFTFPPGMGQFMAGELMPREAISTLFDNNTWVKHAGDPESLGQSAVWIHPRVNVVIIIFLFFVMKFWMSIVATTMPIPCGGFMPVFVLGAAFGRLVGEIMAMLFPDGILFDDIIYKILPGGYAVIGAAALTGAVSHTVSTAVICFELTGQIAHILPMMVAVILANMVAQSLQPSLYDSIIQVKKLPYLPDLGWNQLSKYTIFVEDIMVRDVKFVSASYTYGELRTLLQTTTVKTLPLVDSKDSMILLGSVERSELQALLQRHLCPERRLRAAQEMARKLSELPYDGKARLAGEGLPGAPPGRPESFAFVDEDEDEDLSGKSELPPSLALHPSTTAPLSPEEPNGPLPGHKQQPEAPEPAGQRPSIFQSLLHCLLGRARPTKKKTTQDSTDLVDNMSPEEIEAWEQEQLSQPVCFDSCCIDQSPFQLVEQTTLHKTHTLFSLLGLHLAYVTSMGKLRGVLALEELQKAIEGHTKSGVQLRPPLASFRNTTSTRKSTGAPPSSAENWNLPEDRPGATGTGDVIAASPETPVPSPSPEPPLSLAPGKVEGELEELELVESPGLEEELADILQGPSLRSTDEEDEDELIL

Cc1cc([C@@H]2CCCN2C)on1 [ABT-418]
> 10 µM: all assays above
